Results on 15 compounds are retold here after patent publication US9708368B2, “Linear peptide antibiotics” (priority 2012, dated 2017).

The target in one assay is S. aureus SPase (Staphylococcus aureus, UniProt P0A070). As to the kind of experiment: biochemical.
The target of the next assay is E. coli SPase (Escherichia coli, UniProt P00803). The assay can be described thus: Biochemical SPase activity assay (fluorogenic peptide substrate), E. coli enzyme.
Assay [1] has as its system methicillin resistant Staphylococcus aureus (MRSA) strain USA300 (NRS384). The settings on record: Method B, 35° C., 22 hours.
Procedure: In vitro antimicrobial activity of each compound was determined by measuring minimal inhibitor concentrations (MICs) using the broth micro-dilution technique as approved by the Clinical and Laboratory Standards Institute (CLSI). […] Bacterial inocula were prepared by scraping cells into 1 mL of testing media (cation adjusted Mueller Hinton Broth supplemented with 0.002% v/v Tween-80) and diluting to a final OD600 nm of 0.01.
Test compounds were prepared in DMSO at a concentration of 10 mg/ml. […] Bacterial inocula were added to the two fold serial dilutions of test compounds to a final density of OD OD600 nm of 0.0005 and incubated stationarily at 35° C. for 22 hours, after which the plates were examined visually.
In assay [2] the test system is Escherichia coli strain MC4100 IMP-4213, which harbors an LptD mutation. Particulars: Method B; E. coli MC4100 IMP-4213 (LptD mutation); 35° C., 22 hours. In outline: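 Two-fold serial dilutions of compound inoculated at final OD600 0.0005, incubated static at 35 °C for 22 h, and growth read visually.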

Structures are written as SMILES. ≈ marks a conversion by molar mass, not a printed value. Numbered stars: 1 amine (or outer) side, 2 acyl side, 3 side chain; on linkers, the order of the positions; unused ones are H or OH. Square brackets hold non-standard residues; d marks the D form. Peptide text beside a SMILES is read from it. * marks the point of attachment. boroAla((+)-pinanediol) = C[C@H](N*)B1O[C@@H]2C[C@@H]3C[C@@H](C3(C)C)[C@]2(C)O1; Biphenylcarbonyl(4'-Bu) = CCCCc1ccc(-c2ccc(C(=O)*)cc2)cc1; X1 = C[C@H](N*)B1OC2C[C@@H]3C[C@@H](C3(C)C)[C@]2(C)O1; Benzoyl(4-(4-Cl-Ph)) = O=C(c1ccc(-c2ccc(Cl)cc2)cc1)*; X21 = CCCCc1ccc(-c2ncc(C(=O)*)s2)cc1; X10 = CCCCc1ccc(-c2ccc(N*)cc2)cc1; Decanoyl = CCCCCCCCCC(=O)*; boroAla = C[C@H](N*)B(O)O; Dab = NCC[C@H](N)C(=O)O; Dap = NC[C@H](N)C(=O)O; CO = O=C([*:1])[*:2]; βAla = NCCC(=O)O

Chain of S. aureus SPase (P0A070 whole entry): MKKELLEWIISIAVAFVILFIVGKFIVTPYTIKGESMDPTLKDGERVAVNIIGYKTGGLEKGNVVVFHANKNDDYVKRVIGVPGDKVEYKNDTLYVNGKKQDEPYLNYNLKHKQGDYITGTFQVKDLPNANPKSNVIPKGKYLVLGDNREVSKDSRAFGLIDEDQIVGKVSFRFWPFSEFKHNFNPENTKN
Chain of E. coli SPase (P00803 whole entry): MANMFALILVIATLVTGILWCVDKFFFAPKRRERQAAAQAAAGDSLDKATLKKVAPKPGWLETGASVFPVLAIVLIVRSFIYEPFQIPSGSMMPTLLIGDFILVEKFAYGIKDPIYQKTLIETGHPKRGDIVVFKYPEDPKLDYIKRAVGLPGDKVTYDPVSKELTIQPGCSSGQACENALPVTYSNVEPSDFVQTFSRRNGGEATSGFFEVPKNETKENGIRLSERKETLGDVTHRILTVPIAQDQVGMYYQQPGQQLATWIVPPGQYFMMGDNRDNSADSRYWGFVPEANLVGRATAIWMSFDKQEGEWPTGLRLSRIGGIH
Procedure for E. coli SPase: Reactions were initiated by the addition of substrate to a final concentration of 20 μM. Reaction progress was monitored by measuring the increase in fluorescence signal (excitation at 314 nm, emission at 416 nm) using a SpectraMax M2 fluorescence microplate reader. […] Three-folder serial dilutions of test compounds, starting at 10 μM, were prepared in enzyme mix solution and incubated at room temperature for 10 minutes. Following this incubation, fluorogenic substrate was added to a final concentration of 20 μM and the increase in fluorescence, corresponding to substrate cleavage, was monitored continuously at room temperature for 1 hour. Initial reaction rates were calculated based on the rate of increase in fluorescence during the reaction. Reaction rates were plotted as a function of compound concentration, and IC50 values are determined nonlinear regression analysis (SoftMaxPro 5.4, Molecular Devices™) of the sigmoidal dose-response curve.

With `CCCCCCCCCC(=O)NCCC(=O)N[C@@H](CCCCN)C(=O)N[C@H](C(=O)N[C@@H](C)C(=O)N[C@@H](CC(N)=O)C(=O)N[C@@H](C)B1OC2C[C@@H]3C[C@@H](C3(C)C)[C@]2(C)O1)[C@@H](C)O` (stereo partly drawn) [Compound 199] ({Decanoyl-βAla}-KTAN-X1), the IC50 (commonly the midpoint of a concentration-inhibition curve) was 0.0014 µM against S. aureus SPase and 0.0045 µM against E. coli SPase. Moreover, the “MIC (μg/mL) S. aureus” value in assay [1] came to 7 µg/mL (≈ 8.11 µM). In addition, the “MIC (μg/mL) E. coli” value in assay [2] is greater than 64 µg/mL.

With `CCCCc1ccc(-c2ccc(C(=O)NCCC(=O)N[C@@H](CCCCN)C(=O)N3CCC[C@H]3C(=O)N[C@@H](C)C(=O)N[C@@H](CCCCN)C(=O)N[C@@H](C)B3OC4C[C@@H]5C[C@@H](C5(C)C)[C@]4(C)O3)cc2)cc1` (stereo partly drawn) [Compound 214] ({Biphenylcarbonyl(4'-Bu)-βAla}-KPAK-X1), the values for the concentration for half-maximal inhibition (IC50) against S. aureus SPase and at E. coli SPase were 0.017 µM and 0.077 µM, respectively. For the same compound, in assay [1], the “MIC (μg/mL) S. aureus” value was 0.35 µg/mL (≈ 0.366 µM). Moreover, in assay [2], the “MIC (μg/mL) E. coli” value amounted to 5.7 µg/mL (≈ 5.97 µM).

For `CCCCc1ccc(-c2ccc(C(=O)N[C@@H](CCN)C(=O)N[C@@H](CCN)C(=O)N[C@@H](C)C(=O)N[C@@H](CO)C(=O)N[C@@H](C)B3O[C@@H]4C[C@@H]5C[C@@H](C5(C)C)[C@]4(C)O3)cc2)cc1` [Compound 185] ({Biphenylcarbonyl(4'-Bu)}-[Dab][Dab]AS-{boroAla((+)-pinanediol)}), the 50% inhibitory concentration (IC50) stood at 0.58 µM on S. aureus SPase and 0.041 µM at E. coli SPase. For the same compound, the “MIC (μg/mL) S. aureus” value in assay [1] turned out to be 4 µg/mL (≈ 4.89 µM). In assay [2], the “MIC (μg/mL) E. coli” value was 0.71 µg/mL (≈ 0.868 µM).

On to `CC(C)C[C@H](NC(=O)[C@H](C)NC(=O)[C@H](CN)NC(=O)[C@H](CN)NC(=O)c1ccc(-c2ccc(Cl)cc2)cc1)C(=O)N[C@@H](C)B1O[C@@H]2C[C@@H]3C[C@@H](C3(C)C)[C@]2(C)O1` [Compound 172] ({Benzoyl(4-(4-Cl-Ph))}-[Dap][Dap]AL-{boroAla((+)-pinanediol)}), for which the IC50 against S. aureus SPase worked out at 0.75 µM; on E. coli SPase, 0.02 µM. Also, in assay [1], the “MIC (μg/mL) S. aureus” value was 8 µg/mL (≈ 10.1 µM). In addition, the “MIC (μg/mL) E. coli” value in assay [2] was determined as 8 µg/mL (≈ 10.1 µM).

As for `CCCCc1ccc(-c2ncc(C(=O)N[C@@H](CCN)C(=O)N[C@H](C(=O)N[C@@H](C)C(=O)N[C@@H](CCCCN)C(=O)N[C@@H](C)B3OC4C[C@@H]5C[C@@H](C5(C)C)[C@]4(C)O3)[C@@H](C)O)s2)cc1` (stereo partly drawn) [Compound 248] (X21-[Dab]TAK-X1), the values for the IC50 against S. aureus SPase and against E. coli SPase were 0.17 µM and 0.011 µM, respectively. For the same compound, the “MIC (μg/mL) S. aureus” value in assay [1] is 0.25 µg/mL (≈ 0.288 µM). Also, the “MIC (μg/mL) E. coli” value in assay [2] turned out to be 0.25 µg/mL (≈ 0.288 µM).

For the compound `CCCCc1ccc(-c2ccc(C(=O)N[C@@H](CCN)C(=O)N[C@H](C(=O)N[C@@H](C)C(=O)N[C@@H](CCCCN)C(=O)N[C@@H](C)B(O)O)[C@@H](C)O)cc2)cc1` [Compound 178] ({Biphenylcarbonyl(4'-Bu)}-[Dab]TAK-boroAla), the IC50 at S. aureus SPase was 0.058 µM; against E. coli SPase, 0.0031 µM. The “MIC (μg/mL) S. aureus” value in assay [1] was 0.063 µg/mL (≈ 0.0868 µM). Further, in assay [2], the “MIC (μg/mL) E. coli” value was 0.25 µg/mL (≈ 0.344 µM).

Consider `CCCCc1ccc(-c2ccc(C(=O)N[C@@H](CCN)C(=O)N[C@@H](CCN)C(=O)N[C@@H](C)C(=O)N[C@@H](CC(C)C)C(=O)N[C@@H](C)B(O)O)cc2)cc1` [Compound 179] ({Biphenylcarbonyl(4'-Bu)}-[Dab][Dab]AL-boroAla), for which the results for the 50% inhibitory concentration (IC50) against S. aureus SPase and against E. coli SPase were 0.57 µM and 0.022 µM, respectively. For the same compound, the “MIC (μg/mL) S. aureus” value in assay [1] was 2 µg/mL (≈ 2.82 µM). In addition, the “MIC (μg/mL) E. coli” value in assay [2] worked out at 0.5 µg/mL (≈ 0.705 µM).

For `CCCCc1ccc(-c2ccc(C(=O)NCCC(=O)N[C@@H](CCCCN)C(=O)N3CCC[C@H]3C(=O)N[C@@H](C)C(=O)N[C@@H](CC(N)=O)C(=O)N[C@@H](C)B(O)O)cc2)cc1` [Compound 220] ({Biphenylcarbonyl(4'-Bu)-βAla}-KPAN-boroAla), the half-inhibitory concentration (IC50) was 0.007 µM against S. aureus SPase and 0.036 µM at E. coli SPase. Also, the “MIC (μg/mL) S. aureus” value in assay [1] was determined as 0.5 µg/mL (≈ 0.62 µM). For the same compound, the “MIC (μg/mL) E. coli” value in assay [2] worked out at 4 µg/mL (≈ 4.96 µM).

Turning to `CCCCc1ccc(-c2ccc(CNCC[C@H](NC(C)=O)C(=O)N[C@H](C(=O)N[C@@H](C)C(=O)N[C@@H](CCCCN)C(=O)N[C@@H](C)B3OC4C[C@@H]5C[C@@H](C5(C)C)[C@]4(C)O3)[C@@H](C)O)cc2)cc1` (stereo partly drawn) [Compound 277], the concentration for half-maximal inhibition (IC50) at S. aureus SPase turned out to be 0.11 µM; at E. coli SPase, 0.68 µM. For the same compound, the “MIC (μg/mL) S. aureus” value in assay [1] is 0.5 µg/mL (≈ 0.563 µM). The “MIC (μg/mL) E. coli” value in assay [2] is 32 µg/mL (≈ 36 µM).

As for `CCCCc1ccc(-c2ccc(C(=O)NCCCC[C@H](NC(=O)[C@@H](N)CCN)C(=O)N[C@@H](C)C(=O)N[C@@H](CCCCN)C(=O)N[C@@H](C)B3OC4C[C@@H]5C[C@@H](C5(C)C)[C@]4(C)O3)cc2)cc1` (stereo partly drawn) [Compound 278] (H-[Dab]K(Biphenylcarbonyl(4'-Bu))AK-X1), the IC50 stood at 2.3 µM on S. aureus SPase and 0.8 µM against E. coli SPase. In assay [1], the “MIC (μg/mL) S. aureus” value came to 4 µg/mL (≈ 4.51 µM). In addition, the “MIC (μg/mL) E. coli” value in assay [2] came out at 16 µg/mL (≈ 18 µM).

On to `CCCCc1ccc(-c2ccc(NC(=O)N[C@@H](CCCCN)C(=O)N[C@H](C(=O)N[C@@H](C)C(=O)N[C@@H](CC(N)=O)C(=O)N[C@@H](C)B3OC4C[C@@H]5C[C@@H](C5(C)C)[C@]4(C)O3)[C@@H](C)O)cc2)cc1` (stereo partly drawn) [Compound 263] ({X10-CO}-KTAN-X1), for which the concentration for half-maximal inhibition (IC50) on S. aureus SPase amounted to 0.072 µM; at E. coli SPase, 0.088 µM. For the same compound, the “MIC (μg/mL) S. aureus” value in assay [1] worked out at 0.71 µg/mL (≈ 0.799 µM). Moreover, in assay [2], the “MIC (μg/mL) E. coli” value is 2 µg/mL (≈ 2.25 µM).

On to `CCCCc1ccc(-c2ccc(CC(=O)N[C@@H](CCN)C(=O)N[C@H](C(=O)N[C@@H](C)C(=O)N[C@@H](CCCCN)C(=O)N[C@@H](C)B3OC4C[C@@H]5C[C@@H](C5(C)C)[C@]4(C)O3)[C@@H](C)O)cc2)cc1` (stereo partly drawn) [Compound 243], for which the half-maximal inhibitory concentration (IC50) against S. aureus SPase was determined as 0.08 µM; against E. coli SPase, 0.01 µM. The “MIC (μg/mL) S. aureus” value in assay [1] worked out at 0.5 µg/mL (≈ 0.572 µM). In addition, in assay [2], the “MIC (μg/mL) E. coli” value was 2 µg/mL (≈ 2.29 µM).

`CCCCc1ccc(-c2ccc(C(=O)N[C@@H](CCCCN)C(=O)N[C@H](C(=O)N[C@@H](C)C(=O)N[C@@H](CCN)C(=O)N[C@@H](C)B3O[C@@H]4C[C@@H]5C[C@@H](C5(C)C)[C@]4(C)O3)[C@@H](C)O)cc2)cc1` [Compound 140] ({Biphenylcarbonyl(4'-Bu)}-KTA[Dab]-{boroAla((+)-pinanediol)}): the IC50 against S. aureus SPase worked out at 0.052 µM; on E. coli SPase it was 0.05 µM. For the same compound, the “MIC (μg/mL) S. aureus” value in assay [1] amounted to 1 µg/mL (≈ 1.16 µM). For the same compound, the “MIC (μg/mL) E. coli” value in assay [2] is 8 µg/mL (≈ 9.3 µM).

In the case of `CCCCc1ccc(-c2ccc(CNCCC[C@H](NC(C)=O)C(=O)N[C@H](C(=O)N[C@@H](C)C(=O)N[C@@H](CCCCN)C(=O)N[C@@H](C)B3OC4C[C@@H]5C[C@@H](C5(C)C)[C@]4(C)O3)[C@@H](C)O)cc2)cc1` (stereo partly drawn) [Compound 275], the 50% inhibitory concentration (IC50) on S. aureus SPase is 0.11 µM; against E. coli SPase, 1.5 µM. Moreover, in assay [1], the “MIC (μg/mL) S. aureus” value came to 1 µg/mL (≈ 1.11 µM). Further, the “MIC (μg/mL) E. coli” value in assay [2] was 32 µg/mL (≈ 35.5 µM).

On to `CCCCc1ccc(-c2ccc(C(=O)N[C@@H](CCN)C(=O)N[C@H](C(=O)N[C@@H](C)C(=O)N[C@@H](CCCCN)C(=O)N[C@@H](C)B3O[C@@H]4C[C@@H]5C[C@@H](C5(C)C)[C@]4(C)O3)[C@@H](C)O)cc2)cc1` [Compound 187] ({Biphenylcarbonyl(4'-Bu)}-[Dab]TAK-{boroAla((+)-pinanediol)}), for which the IC50 came to 2.1 µM on S. aureus SPase and 0.17 µM at E. coli SPase. In assay [1], the “MIC (μg/mL) S. aureus” value was 8 µg/mL (≈ 9.3 µM). For the same compound, in assay [2], the “MIC (μg/mL) E. coli” value turned out to be 2.8 µg/mL (≈ 3.26 µM).
